Measured values taken from ChEMBL document CHEMBL1122304, “Synthesis and antiallergy activity of 5-oxo-5H-thiazolo[2,3-b]quinazolinecarboxylic acids” (1983).

Tests used:
Assay type in all cases: functional
Rattus norvegicus [1] = assay: Antiallergic activity in the rat passive cutaneous anaphylaxis (PCA) test at 32 mg/kg upon peroral administration; conditions: route oral
Rattus norvegicus [2] = assay: Antiallergic activity in the rat passive cutaneous anaphylaxis (PCA) test upon peroral administration; conditions: po, read-out: ID50 (the source's name)
Rattus norvegicus [3] = assay: Antiallergic activity in the rat passive cutaneous anaphylaxis (PCA) test at 16 mg/kg upon intraperitoneal administration; conditions: ip
Rattus norvegicus [4] = assay: Antiallergic activity in the rat passive cutaneous anaphylaxis (PCA) test upon intraperitoneal administration of 16 mg/kg of the compound; conditions: ip
Rattus norvegicus [5] = assay: Antiallergic activity in the rat passive cutaneous anaphylaxis (PCA) test upon peroral administration; (range of 0.89-6.85); conditions: po, read-out: ID50 (the source's name)
Rattus norvegicus [6] = assay: Antiallergic activity in the rat passive cutaneous anaphylaxis (PCA) test at 32 mg/kg upon peroral administration after 10-minute pretreatment time; conditions: route oral
Rattus norvegicus [7] = assay: Antiallergic activity in the rat passive cutaneous anaphylaxis (PCA) test at 32 mg/kg upon peroral administration with a 10-minute pretreatment time; conditions: route oral
Rattus norvegicus [8] = assay: Antiallergic activity in the rat passive cutaneous anaphylaxis (PCA) test upon peroral administration; (range = 0.98-4.02); conditions: po, read-out: ID50 (the source's name)
Rattus norvegicus [9] = assay: Antiallergic activity in the rat passive cutaneous anaphylaxis (PCA) test upon peroral administration;(range = 0.07-0.23); conditions: po, read-out: ID50 (the source's name)
Rattus norvegicus [10] = assay: Antiallergic activity in the rat passive cutaneous anaphylaxis (PCA) test upon peroral administration; (range = 0.08-0.18); conditions: po, read-out: ID50 (the source's name)
Rattus norvegicus [11] = assay: Antiallergic activity in the rat passive cutaneous anaphylaxis (PCA) test upon peroral administration; (range = 0.58-1.91); conditions: po, read-out: ID50 (the source's name)
Rattus norvegicus [12] = assay: Antiallergic activity in the rat passive cutaneous anaphylaxis (PCA) test upon peroral administration; (range = 0.04-0.14); conditions: po, read-out: ID50 (the source's name)
Rattus norvegicus [13] = assay: Antiallergic activity in the rat passive cutaneous anaphylaxis (PCA) test upon peroral administration; (range = 0.18-0.61); conditions: po, read-out: ID50 (the source's name)
Rattus norvegicus [14] = assay: Antiallergic activity in the rat passive cutaneous anaphylaxis (PCA) test upon peroral administration; (range = 2.14-29.01); conditions: po, read-out: ID50 (the source's name)
Rattus norvegicus [15] = assay: Antiallergic activity in the rat passive cutaneous anaphylaxis (PCA) test upon intraperitoneal administration of 8 mg/kg of the compound; conditions: ip

For Cc1cn2c(=O)c3cc(C(=O)O)ccc3nc2s1, the inhibition in vivo at 32 mg/kg (Rattus norvegicus [1]) was 79% and the ED50 (Rattus norvegicus [2]) was > 10 mg/kg.

In the case of CC(C)c1cc2c(=O)n3cc(C(=O)O)ccc3nc2s1, the inhibition in vivo at 16 mg/kg (Rattus norvegicus [3]) is reported as 89% and the inhibition in vivo at 32 mg/kg (Rattus norvegicus [1]) is reported as 54%.

With CC(C)c1cc(C(C)C)c2nc3sc(C(=O)O)cn3c(=O)c2c1 the inhibition in vivo at 16 mg/kg (Rattus norvegicus [3]) was 100%, the inhibition in vivo at 32 mg/kg (Rattus norvegicus [1]) was 19% and the ED50 (Rattus norvegicus [2]) was > 10 mg/kg.

CC(C)Cc1ccc2nc3sc(C(=O)O)cn3c(=O)c2c1 was tested, and the inhibition in vivo at 16 mg/kg (Rattus norvegicus [4]) was 62%, the ED50 (Rattus norvegicus [5]) was 2.12 mg/kg and the inhibition in vivo at 32 mg/kg (Rattus norvegicus [6]) was 78%.

Work on C[S+]([O-])c1ccc2nc3sc(C(=O)O)cn3c(=O)c2c1 (stereo unspecified) yielded an inhibition in vivo at 16 mg/kg (Rattus norvegicus [4]) of 55%, an inhibition in vivo at 32 mg/kg (Rattus norvegicus [7]) of 67% and an ED50 (Rattus norvegicus [8]) of 1.82 mg/kg.

CSc1ccc2nc3sc(C(=O)O)cn3c(=O)c2c1 showed an inhibition in vivo at 32 mg/kg (Rattus norvegicus [1]) of 87% and an ED50 (Rattus norvegicus [9]) of 0.12 mg/kg.

CC(C)c1cn2c(=O)c3cc(C(=O)O)ccc3nc2s1 was tested, and the inhibition in vivo at 16 mg/kg (Rattus norvegicus [4]) was 100%, the ED50 (Rattus norvegicus [10]) was 0.11 mg/kg and the inhibition in vivo at 32 mg/kg (Rattus norvegicus [1]) was 100%.

CCC(C)c1ccc2nc3sc(C(=O)O)cn3c(=O)c2c1 (stereo unspecified) showed an inhibition in vivo at 16 mg/kg (Rattus norvegicus [4]) of 59%, an inhibition in vivo at 32 mg/kg (Rattus norvegicus [6]) of 64% and an ED50 (Rattus norvegicus [11]) of 1.01 mg/kg.

With COc1cc2nc3sc(C(=O)O)cn3c(=O)c2cc1OC the inhibition in vivo at 16 mg/kg (Rattus norvegicus [4]) was 89%.

For O=C(O)c1cn2c(=O)c3ccccc3nc2s1, the inhibition in vivo at 16 mg/kg (Rattus norvegicus [4]) was 80%.

In the case of O=C(O)c1ccc2nc3sccn3c(=O)c2c1, the inhibition in vivo at 16 mg/kg (Rattus norvegicus [4]) is reported as 62%, the inhibition in vivo at 32 mg/kg (Rattus norvegicus [1]) is reported as 66% and the ED50 (Rattus norvegicus [2]) is reported as > 10 mg/kg.

Work on COc1ccc2nc3sc(C(=O)O)cn3c(=O)c2c1 yielded an inhibition in vivo at 16 mg/kg (Rattus norvegicus [4]) of 100%, an ED50 (Rattus norvegicus [12]) of 0.07 mg/kg and an inhibition in vivo at 32 mg/kg (Rattus norvegicus [1]) of 78%.

CC(C)c1ccc2nc3sc(C(=O)O)cn3c(=O)c2c1 showed an inhibition in vivo at 16 mg/kg (Rattus norvegicus [3]) of 89%, an inhibition in vivo at 32 mg/kg (Rattus norvegicus [1]) of 86% and an ED50 (Rattus norvegicus [13]) of 0.33 mg/kg.

O=C(O)c1cn2c(=O)c3cc(C4CC4)ccc3nc2s1 gave an inhibition in vivo at 32 mg/kg (Rattus norvegicus [1]) of 100% and an ED50 (Rattus norvegicus [14]) of 6.02 mg/kg.

In the case of O=C(O)c1cc(=O)c2c(OCC(O)COc3cccc4oc(C(=O)O)cc(=O)c34)cccc2o1 [CROMOLYN SODIUM], the inhibition in vivo at 8 mg/kg (Rattus norvegicus [15]) is reported as 46% and the inhibition in vivo at 32 mg/kg (Rattus norvegicus [6]) is reported as 18%.
